The values below come from ChEMBL document CHEMBL1201862, “PubChem BioAssay data set” (2004).

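Compound exposure: 48 hours, 5 concentrations, 96-well plates. The concentration for 50% growth inhibition is given as GI50.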 Active and inactive are the calls of the source. Rule as the data show it: active = GI50 up to about 1.1 µM and inactive = higher.

Among the test systems are NCI-H226; SN12C; CAKI-1; 786-0; HCT-15; TK-10; SK-MEL-28; RXF 393; UACC-62; SK-MEL-2; SF-539; NCI-H23; UACC-257; SF-295; MDA-MB-231; SK-OV-3; Malme-3M; DU-145; OVCAR-5; SR.
Holding throughout (experiment): DTP human tumour cell line panel, 48 h

`COc1ccc(-c2cc(-c3ccccc3)c3c(n2)-c2ccccc2NC(=O)C3)cc1`: the GI50 (usually the concentration that inhibits growth by half) in the test with NCI-H226 was 58.2 µM (inactive); with SN12C it was 58.6 µM (inactive); with CAKI-1, 40.9 µM (inactive); with 786-0 it was 29 µM (inactive); with HCT-15, 17.7 µM; with TK-10, 41.8 µM (inactive). The GI50 is > 100 µM (inactive) in the test on SK-MEL-28; 30.2 µM (inactive) in the test on RXF 393; 98.2 µM (inactive) in the test on UACC-62; 32.7 µM (inactive) in the test with SK-MEL-2; > 100 µM (inactive) in the test on SF-539; > 100 µM (inactive) in the test with NCI-H23. Besides, the GI50 with UACC-257 was > 100 µM (inactive); with SF-295, 47.5 µM (inactive); in the test with MDA-MB-231, 25.4 µM (inactive); in the test with SK-OV-3 it was 39.9 µM (inactive); in the test on Malme-3M, 17.4 µM (inactive); in the test on DU-145, > 100 µM (inactive). Moreover, in the test with OVCAR-5, the GI50 is > 100 µM (inactive).

For `COC(=O)c1ccc(OCCn2nnc(C(=O)NN)c2C(=O)NN)cc1`, the GI50 in the test with SR was > 100 µM (inactive); with SN12C, > 100 µM (inactive); in the test with CAKI-1 it was > 100 µM (inactive); with 786-0, > 100 µM (inactive); with HCT-15 it was over 100 µM; with TK-10, > 100 µM (inactive). Moreover, the GI50 in the test with SK-MEL-28, with SK-MEL-2, in the test with NCI-H23, in the test on UACC-257, with SF-295 and in the test with MDA-MB-231 was > 100 µM (inactive) throughout. For the same compound, the GI50 with Malme-3M, in the test on DU-145 and in the test with OVCAR-5 was > 100 µM (inactive) in each case.

For `CC1OC2OC3C(OCC(O)C3O)OC(=O)[C@]34CCC(C)(C)CC3C3=CCC5[C@@]6(C)C[C@H](O)[C@H](OC7OC(CO)C(O)C(O)C7OC7OC(COC(=O)CC(C)(O)CC(=O)OC1C(OC1OC(CO)C(O)C(O)C1O)C2O)C(O)C(O)C7O)[C@@](C)(CO)C6CC[C@@]5(C)[C@]3(C)CC4` (some centres not stated), the GI50 in the test with NCI-H226 was 7.91 µM (inactive); in the test with SR it was 3.66 µM (inactive); in the test on SN12C, 4.98 µM (inactive); with CAKI-1, 7.53 µM (inactive); with 786-0 it was 2.84 µM (inactive); with HCT-15 it was 6.25 µM. Also, the GI50 in the test on TK-10 was 1.85 µM (inactive); with SK-MEL-28 it was 1.3 µM (inactive); in the test on UACC-62, 1.64 µM (inactive); in the test with SK-MEL-2, 1.58 µM (inactive); in the test with SF-539 it was 5.46 µM (inactive); in the test on NCI-H23 it was 1.51 µM (inactive). Besides, the GI50 with UACC-257 was 1.64 µM (inactive); in the test on SF-295, 1.52 µM (inactive); in the test on MDA-MB-231, 7.52 µM (inactive); in the test on SK-OV-3, 12.2 µM (inactive); in the test on Malme-3M it was 2.41 µM (inactive); in the test on DU-145 it was 2.61 µM (inactive). Further, the GI50 in the test on OVCAR-5 is 2.01 µM (inactive).

Consider `CCOC(=O)/C(C#N)=N\Nc1ccc(-n2c(C)nc3ccc(Br)cc3c2=O)cc1`, for which the GI50 in the test on NCI-H226 is 79.8 µM (inactive); in the test on SR it was 19.7 µM (inactive); in the test with SN12C it was 63.8 µM (inactive); in the test on CAKI-1 it was > 100 µM (inactive); in the test with 786-0 it was 83.9 µM (inactive); in the test on HCT-15 it was 47.9 µM. The GI50 was > 100 µM (inactive) with TK-10; 98.2 µM (inactive) in the test on SK-MEL-28; 85.5 µM (inactive) in the test with UACC-62; > 100 µM (inactive) in the test on SK-MEL-2; 87.9 µM (inactive) in the test on SF-539; > 100 µM (inactive) in the test with NCI-H23. The GI50 with UACC-257 was > 100 µM (inactive); in the test with SF-295, 64.7 µM (inactive); in the test with MDA-MB-231, > 100 µM (inactive); in the test with SK-OV-3 it was > 100 µM (inactive); in the test with DU-145 it was 57.4 µM (inactive); with OVCAR-5 it was > 100 µM (inactive).

On to `CC1(C)OC[C@@H]([C@H](C=O)OCc2ccccc2)O1`, for which the GI50 in the test on NCI-H226 was > 100 µM (inactive); in the test on SR, > 100 µM (inactive); with SN12C, > 100 µM (inactive); in the test with 786-0, > 100 µM (inactive); with HCT-15 it was over 100 µM; in the test on TK-10 it was > 100 µM (inactive). Moreover, the GI50 in the test on SK-MEL-28, in the test with UACC-62, in the test on SK-MEL-2, in the test with NCI-H23, in the test with UACC-257 and in the test with SF-295 was > 100 µM (inactive) throughout. Further, the GI50 with MDA-MB-231, in the test on SK-OV-3, with Malme-3M, in the test with DU-145 and in the test on OVCAR-5 was > 100 µM (inactive) throughout.

For the compound `Clc1ccc(C2ON=C(c3ccccc3)N2C23CC4CC(CC(C4)C2)C3)c(Cl)c1` (configuration not stated), the GI50 in the test on NCI-H226 is > 10 µM (inactive); in the test on SN12C it was > 10 µM (inactive); in the test with CAKI-1 it was > 10 µM (inactive); in the test with 786-0, > 10 µM (inactive); in the test with HCT-15, over 10 µM; in the test on TK-10, > 10 µM (inactive). In addition, the GI50 in the test on SK-MEL-28, in the test on RXF 393, in the test with UACC-62, in the test with SK-MEL-2, in the test on SF-539 and in the test on NCI-H23 was > 10 µM (inactive) throughout. Besides, the GI50 in the test with UACC-257, with SF-295, in the test on MDA-MB-231, in the test with SK-OV-3, in the test with Malme-3M and in the test on DU-145 was > 10 µM (inactive) each time. Further, the GI50 in the test with OVCAR-5 was > 10 µM (inactive).

Turning to `COc1ccc(C2OC(c3ccncc3)=NN2C)cc1OC` (configuration not stated), the GI50 with NCI-H226 is 81.7 µM (inactive); in the test with SN12C, > 100 µM (inactive); with CAKI-1, 73.3 µM (inactive); in the test with 786-0, > 100 µM (inactive); with HCT-15, over 100 µM; in the test with TK-10 it was 79.4 µM (inactive). The GI50 in the test on SK-MEL-28 is > 100 µM (inactive); in the test with RXF 393, 93.5 µM (inactive); in the test with UACC-62, > 100 µM (inactive); in the test on SK-MEL-2, > 100 µM (inactive); in the test on SF-539 it was > 100 µM (inactive); in the test on NCI-H23, > 100 µM (inactive). For the same compound, the GI50 with UACC-257 is > 100 µM (inactive); in the test on SF-295, > 100 µM (inactive); in the test with MDA-MB-231, 67.6 µM (inactive); in the test with SK-OV-3, > 100 µM (inactive); with Malme-3M it was > 100 µM (inactive); with DU-145, > 100 µM (inactive). In the test on OVCAR-5, the GI50 was > 100 µM (inactive).

As to `COC(=O)C1=C(OC)[C@H]2C#C/C=C\C#C[C@@H]3Nc4c(cc(O)c5c4C(=O)c4ccccc4C5=O)[C@]24O[C@@]34[C@H]1C`, the 50% growth inhibitory concentration (GI50) in the test on NCI-H226 was < 0.01 µM (active); in the test with SR it was < 0.01 µM (active); with SN12C it was < 0.01 µM (active); in the test with CAKI-1 it was < 0.01 µM (active); in the test on 786-0 it was < 0.01 µM (active); with HCT-15, under 0.01 µM. Moreover, the 50% growth inhibitory concentration (GI50) was 0.0327 µM (active) in the test with TK-10; < 0.0229 µM (active) with SK-MEL-28; < 0.01 µM (active) with UACC-62; 0.0585 µM (active) with SK-MEL-2; < 0.01 µM (active) with SF-539; < 0.01 µM (active) with NCI-H23. Further, the GI50 in the test on UACC-257, in the test on SF-295, with MDA-MB-231, in the test on SK-OV-3, in the test on Malme-3M and with DU-145 was < 0.01 µM (active) each time. In the test on OVCAR-5, the 50% growth inhibitory concentration (GI50) was < 0.01 µM (active).

Regarding `CCc1n[nH]c(=O)n1CC`, the GI50 in the test on NCI-H226 is > 100 µM (inactive); in the test on SR it was > 100 µM (inactive); with SN12C, > 100 µM (inactive); in the test with CAKI-1, > 100 µM (inactive); in the test on 786-0, > 100 µM (inactive); in the test with HCT-15, over 100 µM. Besides, the GI50 in the test on TK-10, in the test on SK-MEL-28, with UACC-62, with SK-MEL-2, in the test on SF-539 and in the test on NCI-H23 was > 100 µM (inactive) each time. The GI50 with UACC-257, with SF-295, in the test on MDA-MB-231, in the test with SK-OV-3, in the test on Malme-3M and in the test on DU-145 was > 100 µM (inactive) throughout. The GI50 with OVCAR-5 is > 100 µM (inactive).

Regarding `COc1cccc(-c2c(C#N)c(N)nc3c2CCS(=O)(=O)c2ccc(C)cc2-3)c1`, the GI50 is > 100 µM (inactive) in the test with NCI-H226; 40.6 µM (inactive) in the test on SR; > 100 µM (inactive) in the test with SN12C; > 100 µM (inactive) with CAKI-1; 61.7 µM (inactive) in the test on 786-0; over 100 µM in the test on HCT-15. In addition, the GI50 is > 100 µM (inactive) in the test with TK-10; > 100 µM (inactive) in the test with SK-MEL-28; > 100 µM (inactive) in the test with UACC-62; > 100 µM (inactive) in the test on SK-MEL-2; > 100 µM (inactive) in the test with NCI-H23; 65.2 µM (inactive) in the test with UACC-257. Besides, the GI50 is > 100 µM (inactive) in the test with MDA-MB-231, 68.1 µM (inactive) in the test with Malme-3M, > 100 µM (inactive) with DU-145 and > 100 µM (inactive) in the test on OVCAR-5.

As for `O=C(O)c1cccc(Nc2c(C(=O)O)cccc2[N+](=O)[O-])c1`, the GI50 is > 100 µM (inactive) in the test on SR; > 100 µM (inactive) with SN12C; > 100 µM (inactive) with CAKI-1; > 100 µM (inactive) with 786-0; over 100 µM in the test on HCT-15; > 100 µM (inactive) in the test on TK-10. Moreover, the GI50 in the test on UACC-62, in the test with SK-MEL-2, in the test with SF-539, in the test with NCI-H23, in the test on UACC-257 and in the test with SF-295 was > 100 µM (inactive) in each case. In addition, the GI50 with MDA-MB-231 is > 100 µM (inactive); with SK-OV-3, > 100 µM (inactive); in the test on Malme-3M, 38.5 µM (inactive); in the test on DU-145 it was > 100 µM (inactive); with OVCAR-5 it was > 100 µM (inactive).
